Reference: PubChem BioAssay AID1963445 (Molecular Pharmacology Branch, DTP, NCI, 2024)
pIC50: −log10 of the molar value. Values joined by “and” are separate entries in the source; they are usually repeats but may differ in a detail not shown here. Equal entries are not always repeated.

Tested on: MCF7 complex spheroid growth, % test/control
Test: Anticancer human tumor MCF7 cell line growth inhibition [Asc];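 note: spheroids exposed to compounds for 7 days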;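 for viability, T/C: 100% = DMSO vehicle control wells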
Settings: for viability, T/C: stronger effect = lower value; active = viability on the fitted dose curve at most 10% of control; inactive = the rest
Method in brief: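 Complex spheroids combining tumor cells with HUVEC endothelial cells and human MSCs, at 37 degrees C, 5% CO2; agents tested alone or combined, half-log dilutions from at or near clinical Cmax, or 10 microM if Cmax unknown.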

[1] = curve of first compound, second compound 0.0316 µM
[2] = curve of first compound, second compound 0.1 µM
[3] = curve of first compound, second compound 0.316 µM
[4] = curve of first compound, second compound 1 µM
[5] = curve of first compound, second compound 3.16 µM
[6] = curve of first compound, second compound 10 µM
[7] = second compound 0.0316 µM, first compound 0.00316 µM
[8] = second compound 0.0316 µM, first compound 0.01 µM
[9] = second compound 0.0316 µM, first compound 0.0316 µM
[10] = second compound 0.0316 µM, first compound 0.1 µM
[11] = second compound 0.1 µM, first compound 0.00316 µM
[12] = second compound 0.1 µM, first compound 0.01 µM
[13] = second compound 0.1 µM, first compound 0.0316 µM
[14] = second compound 0.1 µM, first compound 0.1 µM
[15] = second compound 0.316 µM, first compound 0.00316 µM
[16] = second compound 0.316 µM, first compound 0.01 µM
[17] = second compound 0.316 µM, first compound 0.0316 µM
[18] = second compound 0.316 µM, first compound 0.1 µM
[19] = second compound 1 µM, first compound 0.00316 µM
[20] = second compound 1 µM, first compound 0.01 µM
[21] = second compound 1 µM, first compound 0.0316 µM
[22] = second compound 1 µM, first compound 0.1 µM

C#Cc1c(F)ccc2cc(O)cc(-c3ncc4c(N5CC6CCC(C5)N6)nc(OCC56CCCN5CC(F)C6)nc4c3F)c12 (stereo not given)
< 5.00: pIC50 (curve of compound)
inactive: viability, T/C (compound 0.0316 µM) 97% and 87.3% and 92.6% | viability, T/C (compound 0.1 µM) 102% and 115% and 97.1% | viability, T/C (compound 0.316 µM) 94.8% and 96.2% and 101% | viability, T/C (compound 1 µM) 103% and 97.7% and 108% | viability, T/C (compound 3.16 µM) 90.2% and 99% and 101% | viability, T/C (compound 10 µM) 87.2% and 87.3% and 87.7%

NC1CCC(NC2CC2c2ccccc2)CC1 (stereo not given) + Cc1c(S(C)(=O)=O)c(-c2cc(F)cc(N3CCN(c4ccc(NS(=O)(=O)c5ccc(NC(CCN6CCC(C(=O)OCCCP(=O)(O)O)CC6)CSc6ccccc6)c(S(=O)(=O)C(F)(F)F)c5)cc4)CC3)c2)c(-c2ccc(Cl)cc2)n1C(C)C
< 7.00: pIC50 [1] | pIC50 [2] | pIC50 [3] | pIC50 [4] | pIC50 [5] | pIC50 [6]
inactive: viability, T/C (second compound 0.0316 µM, first compound 0.000316 µM) 120% | viability, T/C (second compound 0.0316 µM, first compound 0.001 µM) 93.7% | viability, T/C [7] 93.3% | viability, T/C [8] 103% | viability, T/C [9] 99.9% | viability, T/C [10] 106% | viability, T/C (second compound 0.1 µM, first compound 0.000316 µM) 96.7% | viability, T/C (second compound 0.1 µM, first compound 0.001 µM) 106% | viability, T/C [11] 96.3% | viability, T/C [12] 115% | viability, T/C [13] 115% | viability, T/C [14] 97.1% | viability, T/C (second compound 0.316 µM, first compound 0.000316 µM) 95.4% | viability, T/C (second compound 0.316 µM, first compound 0.001 µM) 87.7% | viability, T/C [15] 113% | viability, T/C [16] 97.1% | viability, T/C [17] 91.7% | viability, T/C [18] 100% | viability, T/C (second compound 1 µM, first compound 0.000316 µM) 85.4% | viability, T/C (second compound 1 µM, first compound 0.001 µM) 82.6% | viability, T/C [19] 95% | viability, T/C [20] 84.5% | viability, T/C [21] 102% | viability, T/C [22] 92.9% | viability, T/C (second compound 3.16 µM, first compound 0.000316 µM) 96.8% | viability, T/C (second compound 3.16 µM, first compound 0.001 µM) 83.8% | viability, T/C (second compound 3.16 µM, first compound 0.00316 µM) 87.5% | viability, T/C (second compound 3.16 µM, first compound 0.01 µM) 98.6% | viability, T/C (second compound 3.16 µM, first compound 0.0316 µM) 83.5% | viability, T/C (second compound 3.16 µM, first compound 0.1 µM) 127% | viability, T/C (second compound 10 µM, first compound 0.000316 µM) 150% | viability, T/C (second compound 10 µM, first compound 0.001 µM) 195% | viability, T/C (second compound 10 µM, first compound 0.00316 µM) 149% | viability, T/C (second compound 10 µM, first compound 0.01 µM) 215% | viability, T/C (second compound 10 µM, first compound 0.0316 µM) 186% | viability, T/C (second compound 10 µM, first compound 0.1 µM) 161%

COc1c(OCCCN2CCOCC2)ccc2c3n(c(=NC(=O)c4cnc(N)nc4)nc12)CCN3
active: viability, T/C (compound 1 µM) 8.01% and 9.89% and 10%
inactive: viability, T/C (compound 0.00316 µM) 79.3% and 87.5% and 83.6% | viability, T/C (compound 0.01 µM) 76.8% and 80.8% and 61.1% | viability, T/C (compound 0.0316 µM) 56.2% and 55.1% and 46.3% | viability, T/C (compound 0.1 µM) 29.5% and 33.3% and 43% | viability, T/C (compound 0.316 µM) 12.4% and 14.6% and 17.5%
7.35 and 7.27 and 7.65: pIC50 (curve of compound)

CCN1C(C(=O)NC23CCC(C(=O)O)(CC2)CC3)C(c2cccc(Cl)c2F)C2(C(=O)Nc3cc(Cl)ccc32)C12CCCCC2 (stereo not given) + Cc1c(S(C)(=O)=O)c(-c2cc(F)cc(N3CCN(c4ccc(NS(=O)(=O)c5ccc(NC(CCN6CCC(C(=O)OCCCP(=O)(O)O)CC6)CSc6ccccc6)c(S(=O)(=O)C(F)(F)F)c5)cc4)CC3)c2)c(-c2ccc(Cl)cc2)n1C(C)C
active: viability, T/C (second compound 3.16 µM, first compound 3 µM) 11.5%
6.96: pIC50 [2]
7.22: pIC50 [5]
7.13: pIC50 [6]
7.05: pIC50 [3]
7.09: pIC50 [4]
inactive: viability, T/C (second compound 0.0316 µM, first compound 0.00949 µM) 96.9% | viability, T/C (second compound 0.0316 µM, first compound 0.03 µM) 97.5% | viability, T/C (second compound 0.0316 µM, first compound 0.0949 µM) 48.9% | viability, T/C (second compound 0.0316 µM, first compound 0.3 µM) 38.3% | viability, T/C (second compound 0.0316 µM, first compound 0.949 µM) 22.7% | viability, T/C (second compound 0.0316 µM, first compound 3 µM) 12.1% | viability, T/C (second compound 0.1 µM, first compound 0.00949 µM) 108% | viability, T/C (second compound 0.1 µM, first compound 0.03 µM) 93.7% | viability, T/C (second compound 0.1 µM, first compound 0.0949 µM) 46% | viability, T/C (second compound 0.1 µM, first compound 0.3 µM) 34.5% | viability, T/C (second compound 0.1 µM, first compound 0.949 µM) 15.2% | viability, T/C (second compound 0.1 µM, first compound 3 µM) 11.4% | viability, T/C (second compound 0.316 µM, first compound 0.00949 µM) 95.2% | viability, T/C (second compound 0.316 µM, first compound 0.03 µM) 79.6% | viability, T/C (second compound 0.316 µM, first compound 0.0949 µM) 45% | viability, T/C (second compound 0.316 µM, first compound 0.3 µM) 28.9% | viability, T/C (second compound 0.316 µM, first compound 0.949 µM) 15% | viability, T/C (second compound 0.316 µM, first compound 3 µM) 9.79% | viability, T/C (second compound 1 µM, first compound 0.00949 µM) 91.9% | viability, T/C (second compound 1 µM, first compound 0.03 µM) 74.4% | viability, T/C (second compound 1 µM, first compound 0.0949 µM) 42.5% | viability, T/C (second compound 1 µM, first compound 0.3 µM) 33.4% | viability, T/C (second compound 1 µM, first compound 0.949 µM) 11.6% | viability, T/C (second compound 1 µM, first compound 3 µM) 14.9% | viability, T/C (second compound 3.16 µM, first compound 0.00949 µM) 97.9% | viability, T/C (second compound 3.16 µM, first compound 0.03 µM) 63.8% | viability, T/C (second compound 3.16 µM, first compound 0.0949 µM) 44.2% | viability, T/C (second compound 3.16 µM, first compound 0.3 µM) 18.8% | viability, T/C (second compound 3.16 µM, first compound 0.949 µM) 12.1% | viability, T/C (second compound 10 µM, first compound 0.00949 µM) 188% | viability, T/C (second compound 10 µM, first compound 0.03 µM) 153% | viability, T/C (second compound 10 µM, first compound 0.0949 µM) 30.6% | viability, T/C (second compound 10 µM, first compound 0.3 µM) 27.4% | viability, T/C (second compound 10 µM, first compound 0.949 µM) 12.2% | viability, T/C (second compound 10 µM, first compound 3 µM) 12.3%
6.87: pIC50 [1]

O=C(c1ccc(F)c(F)c1Nc1ccc(I)cc1F)N1CC(O)([C@@H]2CCCCN2)C1 + CNC(C)C(=O)NC1CN(S(=O)(=O)c2cccc(S(=O)(=O)N3CCC4CCC(C(=O)NC(c5ccccc5)c5ccccc5)N4C(=O)C(NC(=O)C(C)NC)C3)c2)CCC2CCC(C(=O)NC(c3ccccc3)c3ccccc3)N2C1=O
inactive: viability, T/C (second compound 0.00316 µM, first compound 0.00316 µM) 38.1% | viability, T/C (second compound 0.00316 µM, first compound 0.01 µM) 41.5% | viability, T/C (second compound 0.00316 µM, first compound 0.0316 µM) 34.6% | viability, T/C (second compound 0.00316 µM, first compound 0.1 µM) 26% | viability, T/C (second compound 0.00316 µM, first compound 0.316 µM) 19.4% | viability, T/C (second compound 0.00316 µM, first compound 1 µM) 12.3% | viability, T/C (second compound 0.01 µM, first compound 0.00316 µM) 17.3% | viability, T/C (second compound 0.01 µM, first compound 0.01 µM) 14.8% | viability, T/C (second compound 0.01 µM, first compound 0.0316 µM) 17.2% | viability, T/C (second compound 0.01 µM, first compound 0.1 µM) 12.9% | viability, T/C (second compound 0.01 µM, first compound 0.316 µM) 12.9% | viability, T/C (second compound 0.01 µM, first compound 1 µM) 11.6% | viability, T/C [7] 14.8% | viability, T/C [8] 15.4% | viability, T/C [9] 13.3% | viability, T/C [10] 16.4% | viability, T/C (second compound 0.0316 µM, first compound 0.316 µM) 10.7% | viability, T/C (second compound 0.0316 µM, first compound 1 µM) 10.2% | viability, T/C [11] 13.2% | viability, T/C [12] 13.5% | viability, T/C [13] 14.4% | viability, T/C [14] 12.3% | viability, T/C (second compound 0.1 µM, first compound 0.316 µM) 13.8% | viability, T/C (second compound 0.1 µM, first compound 1 µM) 9.72% | viability, T/C [15] 13.3% | viability, T/C [16] 14.3% | viability, T/C [17] 15.9% | viability, T/C [18] 12.5% | viability, T/C (second compound 0.316 µM, first compound 0.316 µM) 11.6% | viability, T/C (second compound 0.316 µM, first compound 1 µM) 12.4% | viability, T/C [19] 14.6% | viability, T/C [20] 13.8% | viability, T/C [21] 12.4% | viability, T/C [22] 12.9% | viability, T/C (second compound 1 µM, first compound 0.316 µM) 13% | viability, T/C (second compound 1 µM, first compound 1 µM) 13.2%
> 8.50: pIC50 (curve of first compound, second compound 0.00316 µM) | pIC50 (curve of first compound, second compound 0.01 µM) | pIC50 [1] | pIC50 [2] | pIC50 [3] | pIC50 [4]
